From patent US8143419B2, “Trisubstituted 1,2,4-triazoles” (Janssen Pharmaceutica N. V., priority 2006, dated 2012)

Legend:
hα7-wt nAChR = molecular target: T1, hα7-wt nAChR (Homo sapiens, UniProt P36544); assay: Ca2+ flux imaging (FDSS) (Protocol B), PAM activity with choline as agonist; assay type: cell-based; conditions: for EC50: "<5" = no top plateau at maximal concentration; for Emax: read-out: % efficacy
T1 construct: expressed in transfected cells
Experimental: • Hanks buffered saline solution (HBSS, Invitrogen, Belgium), supplemented with 10 mM HEPES (Invitrogen, Belgium), CaCl2 to a final concentration of 5 mM, 0.1% Bovine serum albumin (Sigma-Aldrich NV, Belgium). b) Calcium-Sensitive Dye—Fluo-4AM • Fluo-4AM (Molecular Probes, USA) was dissolved in DMSO containing 10% Pluronic acid (Molecular Probes, USA) to give a stock solution which was diluted in assay buffer supplemented with 5 mM probenicid (Sigma, Aldrich NV, Belgium) to give a final concentration of 2 μM. c) 384-Well Plates • Black 384 well plate black/clear plates, PDL pre-coated (Corning, Incorporated, USA) d) Calcium Flux Measurement
A Functional drug screening system (FDSS, Hamamatsu) was used to measure intracellular free-calcium flux signals.
Monolayers of hα7-wt nAChR-expressing cells were grown in multi-well plates, in particular black-sided, transparent bottomed 384 well plates coated with poly-D-lysine for 24 hours prior to loading with a fluorescent calcium indicator, in a particular embodiment loading with fluo-4AM for up to 120 minutes.
PAM activity was detected in real time by applying the compounds to be tested to the loaded cells along with a α7 nicotinic receptor agonist during constant monitoring of cellular fluorescence in a FDSS. Compounds giving peak fluorescent responses greater than the response due to agonist alone, were considered to be α7 nAChR PAM's. In a particular embodiment, the α7 nicotinic receptor agonist was choline, a more particular embodiment choline applied at a sub-maximal concentration of 100 μM. In a further setting of the present invention the compounds to be tested were applied prior to the α7 nicotinic receptor agonist, in a particular embodiment up to 10 minutes prior to the agonist.
A control response to choline was calculated on each plate from the difference in peak in fluorescence in wells receiving either choline or assay buffer alone. Compounds of the present invention were tested at a concentration range from 0.01 μM to 30 μM. Compounds were considered to have an interesting activity when they potentiated the choline signal at least with 500% when tested at a concentration of 30 μM (the efficacy of 100 μM choline was defined as 100% in the absence of a PAM). The compounds also have a potentiating effect on the response to choline when measured by whole-cell patch clamp electrophysiology in GH4C1 cells stably over-expressing the human wild-type α7 receptor.

T1 sequence (P36544 23-502): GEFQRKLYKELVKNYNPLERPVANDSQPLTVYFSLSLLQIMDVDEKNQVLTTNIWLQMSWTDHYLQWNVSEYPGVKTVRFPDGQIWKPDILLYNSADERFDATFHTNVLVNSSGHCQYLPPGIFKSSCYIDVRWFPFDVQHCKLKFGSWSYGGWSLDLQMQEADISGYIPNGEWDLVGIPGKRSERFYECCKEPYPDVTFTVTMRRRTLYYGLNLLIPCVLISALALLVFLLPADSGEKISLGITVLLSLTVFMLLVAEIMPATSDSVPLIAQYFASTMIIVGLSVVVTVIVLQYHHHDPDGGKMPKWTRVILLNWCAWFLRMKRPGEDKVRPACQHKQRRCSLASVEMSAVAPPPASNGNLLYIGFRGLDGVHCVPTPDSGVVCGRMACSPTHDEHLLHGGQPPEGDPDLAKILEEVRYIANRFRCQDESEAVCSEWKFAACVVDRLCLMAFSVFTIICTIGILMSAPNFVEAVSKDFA

melting point | EC50 (hα7-wt nAChR) | Emax (hα7-wt nAChR) | Compound
179.1 to 180 °C | 7.94 µM |  | OCCn1nc(Nc2cccc(C(F)(F)F)c2)nc1-c1ccncc1 [Compound 2]
159 °C | 1.26 µM |  | CC(C)Oc1cc(-c2nc(Nc3cccc(C(F)(F)F)c3)nn2CCO)ccn1 [Compound 74]
167.9 °C | 2.51 µM |  | CCNc1cc(-c2nc(Nc3ccc4c(c3)OC(F)(F)O4)nn2CC(C)O)ccn1 (stereo not drawn) [Compound 199]
145.6 °C | 2.51 µM |  | OCCn1nc(Nc2cccc(C(F)(F)F)c2)nc1-c1ccc(N2CCOCC2)nc1 [Compound 77]
184.2 to 188.1 °C | > 10 µM |  | COCCNC(=O)Cn1nc(Nc2cccc(C(F)(F)F)c2)nc1-c1ccncc1 [Compound 24]
145.2 °C | 3.16 µM |  | Cc1cc(-c2nc(Nc3ccc(F)c(C(F)(F)F)c3)nn2C[C@H](C)O)ccn1 [Compound 97]
217 °C | 0.316 µM |  | CNC(=O)Cn1nc(Nc2cccc(OC(F)(F)F)c2)nc1-c1ccc(C2CC2)nc1 [Compound 155]
186.1 °C | > 10 µM | 635% | CNC(=O)c1ccc(-c2nc(Nc3ccc(F)c(F)c3)nn2C[C@H](C)O)cn1 [Compound 41]
149.4 °C | 5.01 µM |  | OCCn1nc(Nc2ccc(F)c(C(F)(F)F)c2)nc1-c1ccncc1F [Compound 89]
124.1 °C | 0.794 µM |  | CC(=O)CCCn1nc(Nc2ccc(F)c(C(F)(F)F)c2)nc1-c1ccnc(C)c1 [Compound 43]
190 °C | 0.631 µM |  | CN(C)C(=O)CCn1nc(Nc2ccc(F)c(C(F)(F)F)c2)nc1-c1cccnc1 [Compound 125]
199.2 °C | 1 µM |  | CNC(=O)Cn1nc(Nc2ccc(F)c(C(F)(F)F)c2)nc1-c1ccncc1Cl [Compound 117]
160.5 °C | 1 µM |  | CCOC(=O)NCCn1nc(Nc2ccc(F)c(C(F)(F)F)c2)nc1-c1ccnc(C)c1 [Compound 139]
160 °C | 1.26 µM |  | COc1ccc(-c2nc(Nc3cccc(C(F)(F)F)c3)nn2CCO)cn1 [Compound 72]
234.8 °C | 3.98 µM |  | CNC(=O)Cn1nc(Nc2ccc(F)c(C(F)(F)F)c2)nc1-c1ccncc1OC [Compound 109]
134.2 °C | 0.398 µM |  | CCNc1ccc(-c2nc(Nc3cc(F)c(F)cc3F)nn2CCC(=O)N(C)C)cn1 [Compound 190]
168 °C | 0.158 µM |  | CN1CCOc2cc(-c3nc(Nc4cccc(OC(F)(F)F)c4)nn3CC(=O)NC3CC3)ccc21 [Compound 165]
135.1 °C | 3.16 µM | 762% | CC(C)c1ccc(-c2nc(Nc3ccc(F)cc3)nn2CCO)cn1 [Compound 169]
138.1 °C | > 10 µM |  | CC(=O)CCn1nc(Nc2cccc(C(F)(F)F)c2)nc1-c1ccnc(C)c1 [Compound 47]
171.5 °C | 1.26 µM |  | Cc1ncccc1-c1nc(Nc2ccc(F)c(C(F)(F)F)c2)nn1CCC(=O)N(C)C [Compound 126]
259.6 °C | 0.158 µM |  | CCNC(=O)Cn1nc(Nc2cc(F)c(F)c(F)c2)nc1-c1ccnc(NCC)c1 [Compound 180]
188.7 °C | 1.26 µM |  | CNc1cc(-c2nc(Nc3ccc(F)c(C(F)(F)F)c3)nn2CCc2noc(C)n2)ccn1 [Compound 37]
249.5 °C | 1.26 µM |  | CNC(=O)Cn1nc(Nc2ccc(F)c(C(F)(F)F)c2)nc1-c1ccncc1F [Compound 116]

melting point | EC50 (hα7-wt nAChR) | Emax (hα7-wt nAChR) | Compound
114.3 to 116.3 °C | 0.316 µM |  | CN(C)C(=O)CCn1nc(Nc2cccc(F)c2)nc1-c1ccc2c(c1)OCCO2 [Compound 194]
177.1 °C | 2 µM |  | COc1cc(-c2nc(Nc3ccc(F)c(C(F)(F)F)c3)nn2CCO)ccn1 [Compound 90]
126.5 °C | 2.51 µM |  | FCCn1nc(Nc2ccc(F)c(C(F)(F)F)c2)nc1-c1ccc(C2CC2)nc1 [Compound 96]
244.9 °C | 2 µM |  | CCNC(=O)Cn1nc(Nc2ccc3c(c2)OC(F)(F)O3)nc1-c1ccnc(C)c1 [Compound 46]
176.3 °C | 0.0398 µM |  | CC(C)c1ccc(-c2nc(Nc3ccc(F)c(C(F)(F)F)c3)nn2CCC(=O)N(C)C)cn1 [Compound 129]
152.9 to 154.9 °C | 2.51 µM |  | Cc1cc(C(=O)NCCCn2nc(Nc3cccc(C(F)(F)F)c3)nc2-c2ccncc2)no1 [Compound 8]
172.3 °C | 2.51 µM |  | Cc1cc(-c2nc(Nc3ccc(F)c(C(F)(F)F)c3)nn2CC(=O)N2CCCC2)ccn1 [Compound 124]
182.4 °C | 0.158 µM | 669% | CN(C)C(=O)CCn1nc(Nc2ccc(F)c(C(F)(F)F)c2)nc1-c1ccnc(CNC(=O)C(F)(F)F)c1 [Compound 59]
265 °C | 1 µM |  | CNC(=O)Cn1nc(Nc2ccc(F)c(C(F)(F)F)c2)nc1-c1ccnc(C)c1 [Compound 107]
224.8 °C | 0.794 µM |  | Cc1cc(-c2nc(Nc3ccc4c(c3)OC(F)(F)O4)nn2CC(=O)NC2CCC2)ccn1 [Compound 205]
213.2 °C | 1.26 µM |  | CC(=O)c1cc(-c2nc(Nc3ccc(F)c(C(F)(F)F)c3)nn2CC(=O)NC2CC2)ccn1 [Compound 123]
259.6 °C | 0.794 µM |  | CNC(=O)Cn1nc(Nc2ccc(F)c(C(F)(F)F)c2)nc1-c1ccnc(NC)c1 [Compound 112]
174.4 °C | 3.98 µM |  | C[C@H](O)Cn1nc(Nc2ccc(F)c(C(F)(F)F)c2)nc1-c1cnc2c(c1)OCC2 [Compound 105]
241.1 °C | 1 µM |  | CNC(=O)Cn1nc(Nc2cc(OC)cc(C(F)(F)F)c2)nc1-c1ccnc(NC)c1 [Compound 146]
214.2 to 223.5 °C | 1.26 µM |  | CNC(=O)Cn1nc(Nc2ccnc(C(F)(F)F)c2)nc1-c1ccc2c(c1)OCCO2 [Compound 212]
177.3 °C | 0.0158 µM |  | CN(C)C(=O)CCn1nc(Nc2ccc(F)c(C(F)(F)F)c2)nc1-c1ccc(C2CC2)nc1 [Compound 132]
227.2 °C | 0.794 µM |  | Cc1cc(-c2nc(Nc3ccc4c(c3)OC(F)(F)O4)nn2CC(=O)NCC2CC2)ccn1 [Compound 26]
167.9 °C | 2 µM |  | CCc1cc(-c2nc(Nc3cccc(C(F)(F)F)c3)nn2CCO)ccn1 [Compound 70]
277.5 °C | 2.51 µM |  | CNC(=O)Cn1nc(Nc2cc(F)c(F)c(F)c2)nc1-c1ccnc(NC)c1 [Compound 36]
150.9 °C | 0.1 µM |  | CN(C)C(=O)CCn1nc(Nc2ccc(F)c(C(F)(F)F)c2)nc1-c1ccc(NC2CC2)nc1 [Compound 133]
169.1 °C | 0.631 µM |  | Cc1cc(-c2nc(Nc3cccc(C(F)(F)F)c3)nn2CCC(=O)N(C)C)ccn1 [Compound 48]
130.9 °C | 5.01 µM |  | Cc1cc(-c2nc(Nc3cccc(OC(F)(F)F)c3)nn2CC(C)O)ccn1 (stereo not drawn) [Compound 148]
